Measurements reported in patent US10258599B2, “Compounds for use in the prevention or treatment of cancer” (SEMMELWEIS UNIVERSITY, priority 2014, dated 2019).
Structures can show the parent of a compound that is named as a salt.

Legend:
[1] = system: male Wistar rats (Charles River); assay: Longevity study: survival of rats treated 3 times a week s.c.; type: in vivo, rat
Protocol: Experiments were carried out on male Wistar rats (Charles River) weighing 250-350 g received from the breeding colony of Semmelweis University. The animals were kept in a 12-hour light-dark cycle and under condition of controlled temperature (22±2° C.) and relative humidity (55±5%). Room temperature and relative humidity was checked daily. The rats were maintained on standard laboratory chow and tap water ad libitum. All procedures conformed to the European Convention for the protection of vertebrate animals used for experimental and other scientific purposes. The study was approved by the Animal Ethics Committee of Semmelweis University, Budapest (permission number: 1810/003/2004)
(§1) The longevity study was performed on 200 male rats received from the breeding colony of the Semmelweis University. The rats were born at the end of February of 2010. After 2-month acclimation period the rats were divided randomly into 5 even groups. The longevity study started at the beginning of May 2010. Animals were observed until their natural deaths. The data in this study represent the changes observed until Oct. 31, 2012, since in the saline-treated group the last animal died on Oct. 31, 2012. As will be shown later a few rats in the enhancer-treated groups were still alive on Nov. 1, 2012.
(§2) During the longevity study 5 rats were housed together in polycarbonate cages (height: 18 cm; wide: 42 cm; length: 44 cm) with a stainless steel on the top. Cage bedding was renewed 3 times a week (Monday, Wednesday and Friday). Bodyweight was measured once every month. The treatment started at the end of the second month of their age.
To avoid the mixing of the groups and individuals, saline-treated rats were signed blue from 1 to 40; D-treated rats were signed green from 1 to 80 (1-40: rats treated with 0.1 mg/kg and 41-80: rats treated with 0.001 mg/kg); B-treated rats were signed black from 1 to 80 (1-40: rats treated with 0.05 mg/kg and 41-80: rats treated with 0.0001 mg/kg).
(§3) Significance in the performance between the groups in the shuttle box was evaluated by multi-factor analysis of variance (ANOVA). Significance regarding the span of time from tumor manifestation until death in rats and regarding aging related changes in bodyweight treated chronically with the enhancer substances was analyzed by One-way ANOVA. Statistical analysis of survival rate and tumor manifestation was performed by the Kaplan-Meier method.

fibromyxosarcoma = assay: Longevity study: manifestation of subcutaneous fibromyxosarcoma (TMS effect); type: in vivo, rat; conditions: for tumor manifestation suppressing (TMS) effect versus saline: Kaplan-Meier
Protocol: as §1, §2
We carefully observed the appearance of the subcutaneous tumor and followed the development of the tumor until death. Histological analysis was performed post mortem on several rats taken from each group as examples.
The subcutaneous tumors developed in the rats were measured by the two largest diameters. After sacrificing the animals, the tumors were removed, photographs were taken. Tissues were fixed immediately after removal in 10% neutral formalin (in PBS, pH7.0) for 24 hours at room temperature, dehydrated and embedded in paraffin. 3-4 micrometer thick sections were cut and stained by hematoxylin and eosin (HE) as a routine.
as §3

[2] = system: catecholaminergic neurons; assay: Shuttle box: antagonism of tetrabenazine-induced learning deficit (conditioned avoidance reflex); type: in vivo, rat
Protocol: In a modified version of the shuttle box the acquisition of a two-way conditioned avoidance reflex (CAR) was analyzed during 5 consecutive days. The rat was put in a box divided inside into two parts by a barrier with a small gate in the middle, and the animal was trained to cross the barrier under the influence of a conditioned stimulus (CS, light flash). […] One trial consisted of 10 s intertrial interval, followed by 20 s CS. The last 5 s of CS overlaped the 5 s US. At each learning session, the number of CARs, EFs and intersignal reactions (IRs) are automatically counted and evaluated by multi-way ANOVA.
Tetrabenazine-treatment (1 mg/kg s.c.) depletes at least 90% of norepinephrine and dopamine from their stores in the nerve terminals of the catecholaminergic neurons in the brain stem. Due to the weak performance of the catecholaminergic brain engine, the activation of the cortical neurons remains below the level required for the acquisition of a CAR. The learning deficit caused by tetrabenazine-treatment can be antagonized by the administration of a synthetic CAE substance or an A-type MAO inhibitor, whereas selective inhibition of B-type MAO or inhibition of the reuptake of catecholamines and/or serotonin is ineffective (Knoll et al., 1992).

Daoy HTB-186 cell line = assay: MTT proliferation assay, Daoy medulloblastoma cells; type: cell-based, human; conditions: monotherapy, nine concentrations 10^-14 to 10^-6 M, 72 hours
Protocol: (§4) Human medulloblastoma cell line, Daoy was purchased from ATCCC, UW-228 was obtained from the courtesy of Professor Silber (Univerity of Washington, Seattle, Wash., USA).
(§5) Daoy and UW-228-2 cell lines were maintained in culture medium (each 500 ml Minimum Essential Medium Eagle, Alpha Modification (M8042, Sigma, St Louis, USA) with 50 ml FCS (Gibco), 40 mg Gentamicin (Sandoz), 5 ml sodium-pyruvate (S8636, Sigma, St Louis, USA), 5 ml non-essential-amino acid solution (M7145, Sigma, St Louis, USA), 10 ml L-glutamin (Sigma, St Louis, USA) at 37° C. in humified 5% CO2.
(§6) In each well 3×10^3 Daoy or UW-228-2 cells were seeded in 96-well plates (Sarstedt), solved in 100 μl of its own medium with 10% FCS. 24 hours after seeding, cells were treated for 72 hours by drugs solved in further 100 μl medium. First, both cell lines were treated by (−)-BPAP and (−)-deprenil in monotherapy to determine its dose-effect curves in concentration of 10^−6, 10^−7, 10^−8, 10^−9, […], 10^−11, 10^−12, 10^−13 and 10^−14 M. In combined treatment 10^−3, 3.3×10^−4, […] and 3.7×10^−5 M of temozolomide (Schering Plough, USA) or 0.04, 0.2, 1, 5 μM of Cisplatin (Ebewe Pharma, Austria) or 0.04, 0.2, 1, 5 μM of etoposide (Ebewe Pharma, Austria) or 10^−7, 10^−6, 10^−5 and 10^−4 μM (UW228-2) or 0.001, 0.005, 0.025 and 0.125 μM (Daoy) of Vincristin (Richter Gedeon, Hungary) were applied in monotherapy or combined with 10^−13 or 10^−8 M of (−)-BPAP or (−)-deprenil.
(§7) Cell proliferation was evaluated by MTT (3-(4,5-Dimethylthiazol-2-yl)-2,5-diphenyltetrazolium bromide) assay (M5655, Sigma) after 72-hour treatment by the method described in manufacturer's protocol.

UW-228-2 cell line = assay: MTT proliferation assay, UW-228-2 medulloblastoma cells; type: cell-based, human; conditions: UW-228-2, monotherapy, nine concentrations 10^-14 to 10^-6 M, 72 hours
Protocol: as §4, §5, §6, §7

lung carcinoma = assay: Longevity study on FVB/N mice: spontaneous lung carcinoma at autopsy; type: in vivo, mouse; conditions: 18-month
Protocol: Body weight is measured bimonthly.
For monitoring, we planned to sacrifice mice from each group at 6-month, 1-year, 1.5-year and 2-year time-points; the rest of the animals are kept until spontaneous death.
The results are shown in Table 4 and on FIGS. 19 and 20. Significance levels were calculated with two-sided Chi-square test.

isolated rat brain stem [3] = conditions: optimal concentration for the specific enhancer effect, 3-min collection period; review Knoll, 2005; cited from earlier work
[4] = system: Wistar-Logan strain of rats; conditions: cited from earlier work
[5] = system: catecholaminergic neurons in the brain stem; conditions: 1 mg/kg s.c.; cited from earlier work
isolated rat brain stem [6] = assay: Release of labelled transmitter from isolated rat brain stem to electrical stimulation
Excerpt: After a single washout the neurons work immediately on their normal activity level again. Since neurons respond to stimulation in an “all or none” manner, it is obvious that only a part of the neuronal population (the most excitable ones) respond to the electrical stimulation.
This measurement can be made, mutatis mutandis, analogously to the measurement described in example 2 of EP1052259B1 (corresponding to WO2000026204A1). The method is described in [Knoll J, Knoll B and Miklya I Life Sci, 58, 2101-2114 (1996)].
In short the brain stem (average weight about 800 mg) is isolated from rats and soaked in oxygenated Krebs' solution. Then solution of labelled neurotransmitter the release of which is measured is added to the preparation and allowed for uptake in an appropriate environment. If needed, MAO activity is inhibited.
After uptake of the monoamine the brain stem is fixed in appropriate organ bath and washed in appropriate solution facilitating uptake and preventing metabolization of the monoamine.
Fractionation of the perfusate is carried out periodically and, if the monoamine is radiolabelled, fractions are combined with a scintillation liquid.
The organ is perfused with the buffer containing the compound(s) of the invention for sufficient time before electrostimulation.
The brain stem is stimulated with rectangular pulses (e.g. 3 Hz, 1 ms 60 V) e.g. for 3 min. At the beginning of the experiment, the several, e.g. three resting periods of fraction were proceeded prior to the first stimulation. Thereafter it is allotted several, e.g. seven resting periods of fraction between stimulation.

[7] = shuttle box, 1 mg/kg tetrabenazine s.c.

SMILES: C#CCN(C)[C@H](C)Cc1ccccc1 [(−)-Deprenyl, (R)—N-methyl-N-(1-phenylpropan-2-yl)prop-2-yn-1-amine, reference compound]
- month of age in which the first animal died ([1]; 0.001 mg/kg s.c. 3 times a week, N=40): 13 month
- rats remained alive to the end of the 32nd month ([1]; 0.001 mg/kg, N=40): none
- month of age in which the first animal died ([1]; 0.1 mg/kg s.c. 3 times a week, N=40): 11 month
- lifespan compared with saline-treated peers ([1]; both doses of the longevity study (FIGS. 5-8)): did not prolong the lifespan of rats significantly
- tumor manifestation suppressing (TMS) effect versus saline (fibromyxosarcoma; 0.001 mg/kg): not significant
- month of age in which the first animal manifested the tumor (fibromyxosarcoma; 0.001 mg/kg, N=40): 12 month
- rats in the group manifested the tumor to the end of the 32nd month (fibromyxosarcoma; 0.001 mg/kg, N=40): 15 rats
- tumor manifestation suppressing (TMS) effect versus saline (fibromyxosarcoma; 0.1 mg/kg, P<0.01, listed as (−)-deprenyl): significantly decreased
- tumor manifestation suppressing (TMS) effect versus saline (fibromyxosarcoma; 0.1 mg/kg, P<0.01, listed as Deprenyl): suppressed the manifestation of the fibromyxosarcoma significantly
- month of age in which the first animal manifested the tumor (fibromyxosarcoma; 0.1 mg/kg, N=40): 16 month
- rats in the group manifested the tumor to the end of the 32nd month (fibromyxosarcoma; 0.1 mg/kg, N=40): 11 rats
- rats manifested the tumor when the group completed the 30th month of life (fibromyxosarcoma; 0.1 mg/kg, N=40): 11 rats
- span of time from tumor manifestation until death (fibromyxosarcoma; chronic treatment, versus saline (FIG. 13), One-way ANOVA): no significant difference
- dose-effect-relation of the enhancer effect ([2]; shuttle box (FIG. 3)): bi-modal, bell-shaped
- optimal dose that exerted the specific enhancer effect [2, 7]: 0.001 mg/kg
- very high dose range effective in antagonizing the tetrabenazine-induced learning deficit (MAO-A inhibition) [2, 7]: 5 to 10 mg/kg
- proliferation of cultured medulloblastoma cells (Daoy HTB-186 cell line; listed as (−)-deprenyl): did not inhibit the proliferation
- proliferation of cultured medulloblastoma cells (Daoy HTB-186 cell line; listed as Deprenyl): none of the applied concentrations did Deprenyl or BPAP influence the proliferation
- proliferation of cultured medulloblastoma cells (UW-228-2 cell line; listed as (−)-deprenyl): did not inhibit the proliferation
- proliferation of cultured medulloblastoma cells (UW-228-2 cell line; listed as Deprenyl): none of the applied concentrations did Deprenyl or BPAP influence the proliferation
- Number of detected lung carcinoma (lung carcinoma; 0.001 mg/kg daily, 2 dissected mice): 0
- Number of detected lung carcinoma (lung carcinoma; 0.1 mg/kg daily, 4 dissected mice): 1
- released amount of labeled transmitter ([3H]-norepinephrine, [3H]-dopamine or [3H]-serotonin) (isolated rat brain stem [3]): significantly higher
- rats that lived longer than the maximum lifespan ever observed in the strain ([4]; HP rats, out of 50): 17 rats
- lifespan versus saline treated peers ([4]; sexually lowest performing (LP) rats, n=49): lived significantly longer than their saline treated peers

SMILES: COc1cc2c(cc1OC)C1CC(=O)C(CC(C)C)CN1CC2 (centres unmarked) [Tetrabenazine, Tetrabenazine HCl]
- depletion of norepinephrine and dopamine from their stores in the nerve terminals [5]: at least 90%

SMILES: C#CCN(C)CCCOc1ccc(Cl)cc1Cl [clorgyline]
- release of [3H]-SER to electrical stimulation (isolated rat brain stem [6]; 250 ng/ml): None of these compounds enhanced the release

SMILES: CNCCC(Oc1ccc(C(F)(F)F)cc1)c1ccccc1 (centres unmarked) [fluoxetine]
- release of [3H]-SER to electrical stimulation (isolated rat brain stem [6]; 50 ng/ml): None of these compounds enhanced the release

SMILES: NCCNC(=O)c1ccc(Cl)cn1 [lazabemide]
- release of [3H]-SER to electrical stimulation (isolated rat brain stem [6]; 250 ng/ml): None of these compounds enhanced the release
